Measurements from patent US20190167771A1, “CONTROL ANGIOGENESIS BY REGULATING PHOSPHORYLATION OF SERYL-tRNA SYNTHETASE (SerRS)” (The Scripps Research Institute, priority 2016, published 2019).

The substances below were run on Vegfa (assay: Vegfa mRNA by qRT-PCR in zebrafish embryos with SerRS knockdown and mRNA co-injection). Conditions: human SerRS mRNA co-injected with SerRS-MO, 3 dpf.
Assay type: in vivo
Experimental: In FIG. 2A, wild type SerRS (SerRS^WT), its mutants with double substitutions of serine 101 and 241 with alanine or aspartic acid residues (SerRS^S101A/S241A and SerRS^S101D/S241D), or empty vector were transfected into HEK293 cells. The expression levels of SerRS proteins was measured by immunoblot (bottom) and VEGFA expression was determined by qRT-PCR (means±SEM from three independent experiments; ***P<0.0001). In FIGS. 2B-D, the roles of SerRS^S101A/S241A and SerRS^S101D/S241D in regulating vascular development in vivo in zebrafish were examined by co-injection of SerRS^S101A/S241A and SerRS^S101D/S241D mRNAs into one-cell-stage embryos whose endogenous SerRS was knocked down by injection of antisense morpholino (SerRS-MO) that led to abnormal high expression of Vegfa and hypervascularization (shown by short bold arrows in FIG. 2C). At 3 day post fertilization (dpf), embryos were harvested and Vegfa expression levels were measured by qRT-PCR (means±SEM, n=125-211; *P<0.01, **P<0.001) (B). The development of intersegmental vessel (ISV) at 3 dpf was examined (C) and the statistics of ISV abnormal branching rescued by SerRS^WT or mutant SerRS mRNA injections was analyzed (D; χ^2-test,* P>0.05 vs SerRS^WT, **P>0.1 vs SerRS-MO, ***P<1×10^−28 vs control-MO). In FIG. 2E, the binding affinities of SerRS^WT or SerRS^S101D/S241D with ^32P labeled DNA fragments corresponding to SerRS binding site on human VEGFA promoter were examined by EMSA. In FIG. 2F, the binding of SerRS^WT, SerRS^S101A/S241A, or SerRS^S101D/S241D on VEGFA promoter in HEK293 cells was examined by chromatin immunoprecipitation (ChIP) and qPCR (means±SEM from two independent experiments; ***P<0.0001). In FIG. 2G, the binding of endogenous SerRS on VEGFA promoter during hypoxia course was monitored by ChIP (means±SEM from three independent experiments; *P<0.05, **P<0.005 vs normal).
Total RNA was isolated from cells and zebrafish embryos by TRIzol Reagent (ThermoFisher Scientific). […] of the total RNA from each sample was reversely transcribed to cDNA by M-MLV reverse transcriptase (Promega, Madison, Wis., USA). All real-time PCR reactions were performed using the StepOnePlus Real-Time PCR system (ThermoFisher Scientific) with SYBR Select Master Mix ThermoFisher Scientific). […]

Q: Which “rescue of Vegfa mRNA increase caused by SerRS-MO” value does the source give for “SerRS^S101A/S241A: phosphorylation-deficient human SerRS double mutant, serine 101 and 241 to alanine, SEQ ID NO: 4 (mouse version in matrigel assay)” here?
A: The value was “rescued or largely rescued”.

Q: How did the “rescue of Vegfa mRNA increase caused by SerRS-MO” value turn out when “SerRS^S101D/S241D: SerRS with double substitutions of S101 and S241 with aspartic acid, mimics the phosphorylated SerRS” was run?
A: Its value is “no rescue effect at all”.

Q: “SerRS^WT: wildtype human seryl-tRNA synthetase protein, SEQ ID NO: 1 (mouse wild type used in the 3B11 matrigel assay)” was tested. Which “rescue of Vegfa mRNA increase caused by SerRS-MO” value did it give?
A: Its value is “rescued or largely rescued”.
